According to patent US8188127B2, “Microbicidal composition” (Rohm and Haas Company, priority 2007, dated 2012):
Several values for one entry are separate records, joined by “and”; a condition that tells them apart may be missing. Equal entries are not always repeated.

Columns and labels:
Format in all cases: cell-based
[1] = test system: A. niger ATCC # 16404; assay: Microtiter plate MIC / synergy test (Kull synergy index), mold, PDB medium; conditions: for Ca: MIC of BIOBAN1246 alone / Ca: MIC of TCMTB alone: component alone; for Ca: ppm AI of first component (A) alone (MIC, QA) / Cb: ppm AI of MBIT alone (MIC, QB): A. niger; for Ca: MIC of first component (A) alone (QA) / Cb: MIC of MBIT alone (QB): PDB medium, 25° C.
Source text: (§1) One measure of synergism is the industrially accepted method described by Kull, F. C.; Eisman, P. C.; Sylwestrowicz, H. D. and Mayer, R. L., in Applied Microbiology 9:538-541 (1961), using the ratio determined by the formula: Qa/QA+Qb/QB=Synergy Index (“SI”) wherein: • QA=concentration of compound A (first component) in ppm, acting alone, which produced an end point (MIC of Compound A). • Qa=concentration of compound A in ppm, in the mixture, which produced an end point. • QB=concentration of compound B (second component) in ppm, acting alone, which produced an end point (MIC of Compound B). • Qb=concentration of compound B in ppm, in the mixture, which produced an end point.
(§2) When the sum of Qa/QA and Qb/QB is greater than one, antagonism is indicated. […] The lower the SI, the greater the synergy shown by that particular mixture. The minimum inhibitory concentration (MIC) of a microbicide is the lowest concentration tested under a specific set of conditions that prevents the growth of added microorganisms.
(§3) Synergy tests were conducted using standard microtiter plate assays with media designed for optimal growth of the test microorganism. Minimal salt medium supplemented with 0.2% glucose and 0.1% yeast extract (M9GY medium) was used for testing bacteria; Potato Dextrose Broth (PDB medium) was used for testing yeast and mold. In this method, a wide range of combinations of microbicides was tested by conducting high resolution MIC assays in the presence of various concentrations of MBIT. High resolution MICs were determined by adding varying amounts of microbicide to one column of a microtitre plate and doing subsequent […] dilutions using an automated liquid handling system to obtain a series of endpoints ranging from 2 ppm to 10,000 ppm active ingredient.
(§4) The synergy of the combinations of the present invention was determined against several microorganisms, as described in the Tables below. The bacteria were used at a concentration of about 5×10^6 bacteria per mL and the yeast and mold at 5×10^5 fungi per mL. These microorganisms are representative of natural contaminants in many consumer and industrial applications. […] (yeast and mold) or 30° C. (bacteria).
(§5) In each test, Second Component (B) was MBIT and the First Component (A) was the other commercial microbicide.

[2] = test system: C. albicans ATCC # 10231; assay: Microtiter plate MIC / synergy test (Kull synergy index), yeast, PDB medium; conditions: for Ca: MIC of BIOBAN1246 alone / Ca: MIC of TCMTB alone: component alone; for Ca: ppm AI of first component (A) alone (MIC, QA) / Cb: ppm AI of MBIT alone (MIC, QB): C. albicans; for Ca: MIC of first component (A) alone (QA) / Cb: MIC of MBIT alone (QB): PDB medium, 25° C.
Source text: as §1, §2, §3, §4, §5

[3] = test system: Ps. aeruginosa ATCC # 9027; assay: Microtiter plate MIC / synergy test (Kull synergy index), bacteria, M9GY medium; conditions: for Ca: ppm AI of first component (A) alone (MIC, QA) / Cb: ppm AI of MBIT alone (MIC, QB): Ps. aeruginosa
Description: as §2, §3
The bacteria were used at a concentration of about 5×10^6 bacteria per mL and the yeast and mold at 5×10^5 fungi per mL. These microorganisms are representative of natural contaminants in many consumer and industrial applications. […] (yeast and mold) or 30° C. (bacteria).
as §5

[4] = test system: S. aureus ATCC # 6538; assay: as above; conditions: for Ca: ppm AI of first component (A) alone (MIC, QA) / Cb: ppm AI of MBIT alone (MIC, QB): S. aureus; for Ca: MIC of first component (A) alone (QA) / Cb: MIC of MBIT alone (QB): M9GY medium, 30° C.
Source text: as §1, §2, §3, §4, §5

[5] = A. niger ATCC # 16404, contact time 3 days
[6] = A. niger ATCC # 16404, contact time 7 days
[7] = C. albicans ATCC # 10231, contact time 48 hrs
[8] = C. albicans ATCC # 10231, contact time 72 hrs
[9] = Ps. aeruginosa ATCC # 9027, contact time 48 hrs, component alone
[10] = S. aureus ATCC # 6538, contact time 24 hrs, component alone
[11] = Ps. aeruginosa ATCC # 9027, contact time 48 hrs, M9GY medium, 30° C.
[12] = S. aureus ATCC # 6538, contact time 24 hrs
[13] = S. aureus ATCC # 6538, contact time 48 hrs

## CCC12COCN1COC2 [BIOBAN1246]
[1]; [5]
  Ca: MIC of BIOBAN1246 alone: 650 ppm AI
[1]; [6]
  Ca: MIC of BIOBAN1246 alone: 875 ppm AI
[2]; [7]
  Ca: MIC of BIOBAN1246 alone: 3000 ppm AI
[2]; [8]
  Ca: MIC of BIOBAN1246 alone: 4250 ppm AI
[3]; Ps. aeruginosa ATCC # 9027, contact time 24 hrs, component alone
  Ca: MIC of BIOBAN1246 alone: 100 ppm AI
[3]; [9]
  Ca: MIC of BIOBAN1246 alone: 150 ppm AI
[4]; [10]
  Ca: MIC of BIOBAN1246 alone: 55 ppm AI
[4]; S. aureus ATCC # 6538, contact time 48 hrs, component alone
  Ca: MIC of BIOBAN1246 alone: 55 ppm AI

## CC1(C)COCN1 [BIOBAN 1135, 4,4-dimethyloxazolidine]
[1]; contact time 3 days
  Ca: ppm AI of first component (A) alone (MIC, QA): 525 ppm AI
[1]; contact time 7 days
  Ca: ppm AI of first component (A) alone (MIC, QA): 875 ppm AI
[2]; contact time 48 hrs
  Ca: ppm AI of first component (A) alone (MIC, QA): 1100 ppm AI
[2]; contact time 72 hrs
  Ca: ppm AI of first component (A) alone (MIC, QA): 1100 ppm AI
[3]; contact time 24 hrs
  Ca: ppm AI of first component (A) alone (MIC, QA): 100 ppm AI
[3]; contact time 48 hrs
  Ca: ppm AI of first component (A) alone (MIC, QA): 100 ppm AI
[4]; contact time 24 hrs
  Ca: ppm AI of first component (A) alone (MIC, QA): 55 ppm AI
[4]; contact time 48 hrs
  Ca: ppm AI of first component (A) alone (MIC, QA): 55 ppm AI

## OCCN1CN(CCO)CN(CCO)C1 [BIOBAN GK, hexahydro-1,3,5-tris(2-hydroxyethyl)-s-triazine]
[1]; contact time 3 days
  Ca: ppm AI of first component (A) alone (MIC, QA): 425 ppm AI
[1]; contact time 7 days
  Ca: ppm AI of first component (A) alone (MIC, QA): 650 ppm AI
[2]; contact time 48 hrs
  Ca: ppm AI of first component (A) alone (MIC, QA): 875 ppm AI
[2]; contact time 72 hrs
  Ca: ppm AI of first component (A) alone (MIC, QA): 875 ppm AI
[3]; contact time 24 hrs
  Ca: ppm AI of first component (A) alone (MIC, QA): 55 ppm AI
[3]; contact time 48 hrs
  Ca: ppm AI of first component (A) alone (MIC, QA): 55 ppm AI
[4]; contact time 24 hrs
  Ca: ppm AI of first component (A) alone (MIC, QA): 55 ppm AI
[4]; contact time 48 hrs
  Ca: ppm AI of first component (A) alone (MIC, QA): 55 ppm AI

## CCCCCCCC(=O)O [Caprylic acid]
[1]; [5]
  Ca: MIC of first component (A) alone (QA): 650 ppm AI
[1]; [6]
  Ca: MIC of first component (A) alone (QA): 875 ppm AI
[2]; [7]
  Ca: MIC of first component (A) alone (QA): 65 ppm AI
[2]; [8]
  Ca: MIC of first component (A) alone (QA): 87.5 ppm AI
[3]; [11]
  Ca: MIC of first component (A) alone (QA): >11000 ppm AI
[4]; [12]
  Ca: MIC of first component (A) alone (QA): 425 ppm AI
[4]; [13]
  Ca: MIC of first component (A) alone (QA): 425 ppm AI

## Cn1sc2ccccc2c1=O [MBIT, N-methyl-1,2-benzisothiazolin-3-one]
[1]; [5]
  Cb: MIC of MBIT alone (QB): 37.5 ppm AI and 75 ppm AI
[1]; A. niger ATCC # 16404, contact time 3 days, component alone (Table 8)
  Cb: MIC of MBIT alone: 75 ppm AI
[1]; A. niger ATCC # 16404, contact time 3 days, component alone (Table 9)
  Cb: MIC of MBIT alone: 37.5 ppm AI
[1]; A. niger ATCC # 16404, contact time 3 days, component alone (Table 10)
  Cb: MIC of MBIT alone: 37.5 ppm AI
[1]; [6]
  Cb: MIC of MBIT alone (QB): 150 ppm AI
[1]; A. niger ATCC # 16404, contact time 7 days, component alone (Table 8)
  Cb: MIC of MBIT alone: 150 ppm AI
[1]; A. niger ATCC # 16404, contact time 7 days, component alone (Table 9)
  Cb: MIC of MBIT alone: 150 ppm AI
[1]; A. niger ATCC # 16404, contact time 7 days, component alone (Table 10)
  Cb: MIC of MBIT alone: 150 ppm AI
[1]; contact time 3 days
  Cb: ppm AI of MBIT alone (MIC, QB): 37.5 ppm AI and 75 ppm AI
[1]; contact time 7 days
  Cb: ppm AI of MBIT alone (MIC, QB): 150 ppm AI
[2]; [7]
  Cb: MIC of MBIT alone (QB): 30 ppm AI
[2]; C. albicans ATCC # 10231, contact time 48 hrs, component alone (Table 8)
  Cb: MIC of MBIT alone: 30 ppm AI
[2]; C. albicans ATCC # 10231, contact time 48 hrs, component alone (Table 9)
  Cb: MIC of MBIT alone: 30 ppm AI
[2]; C. albicans ATCC # 10231, contact time 48 hrs, component alone (Table 10)
  Cb: MIC of MBIT alone: 30 ppm AI
[2]; [8]
  Cb: MIC of MBIT alone (QB): 60 ppm AI and 30 ppm AI
[2]; C. albicans ATCC # 10231, contact time 72 hrs, component alone (Table 8)
  Cb: MIC of MBIT alone: 30 ppm AI
[2]; C. albicans ATCC # 10231, contact time 72 hrs, component alone (Table 9)
  Cb: MIC of MBIT alone: 30 ppm AI
[2]; C. albicans ATCC # 10231, contact time 72 hrs, component alone (Table 10)
  Cb: MIC of MBIT alone: 60 ppm AI
[2]; contact time 48 hrs
  Cb: ppm AI of MBIT alone (MIC, QB): 30 ppm AI
[2]; contact time 72 hrs
  Cb: ppm AI of MBIT alone (MIC, QB): 30 ppm AI
[3]; Ps. aeruginosa ATCC # 9027, contact time 24 hrs, M9GY medium, 30° C.
  Cb: MIC of MBIT alone (QB): 75 ppm AI
[3]; Ps. aeruginosa ATCC # 9027, contact time 24 hrs, component alone (Table 8)
  Cb: MIC of MBIT alone: 75 ppm AI
[3]; Ps. aeruginosa ATCC # 9027, contact time 24 hrs, component alone (Table 9)
  Cb: MIC of MBIT alone: 75 ppm AI
[3]; [11]
  Cb: MIC of MBIT alone (QB): 125 ppm AI
[3]; Ps. aeruginosa ATCC # 9027, contact time 48 hrs, component alone (Table 8)
  Cb: MIC of MBIT alone: 125 ppm AI
[3]; Ps. aeruginosa ATCC # 9027, contact time 48 hrs, component alone (Table 9)
  Cb: MIC of MBIT alone: 125 ppm AI
[3]; Ps. aeruginosa ATCC # 9027, contact time 48 hrs, component alone (Table 10)
  Cb: MIC of MBIT alone: 125 ppm AI
[3]; contact time 24 hrs
  Cb: ppm AI of MBIT alone (MIC, QB): 75 ppm AI
[3]; contact time 48 hrs
  Cb: ppm AI of MBIT alone (MIC, QB): 125 ppm AI
[4]; [12]
  Cb: MIC of MBIT alone (QB): 15 ppm AI and 30 ppm AI
[4]; S. aureus ATCC # 6538, contact time 24 hrs, component alone (Table 8)
  Cb: MIC of MBIT alone: 30 ppm AI
[4]; S. aureus ATCC # 6538, contact time 24 hrs, component alone (Table 9)
  Cb: MIC of MBIT alone: 30 ppm AI
[4]; S. aureus ATCC # 6538, contact time 24 hrs, component alone (Table 10)
  Cb: MIC of MBIT alone: 15 ppm AI
[4]; [13]
  Cb: MIC of MBIT alone (QB): 30 ppm AI
[4]; S. aureus ATCC # 6538, contact time 48 hrs, component alone (Table 8)
  Cb: MIC of MBIT alone: 30 ppm AI
[4]; S. aureus ATCC # 6538, contact time 48 hrs, component alone (Table 9)
  Cb: MIC of MBIT alone: 30 ppm AI
[4]; contact time 24 hrs
  Cb: ppm AI of MBIT alone (MIC, QB): 15 ppm AI and 30 ppm AI
[4]; contact time 48 hrs
  Cb: ppm AI of MBIT alone (MIC, QB): 30 ppm AI

## O=C([O-])CNCO.[Na+] [SUTTOCIDE A, sodium hydroxymethylglycinate]
[1]; contact time 3 days
  Ca: ppm AI of first component (A) alone (MIC, QA): 875 ppm AI
[1]; contact time 7 days
  Ca: ppm AI of first component (A) alone (MIC, QA): 1100 ppm AI
[2]; contact time 48 hrs
  Ca: ppm AI of first component (A) alone (MIC, QA): 3000 ppm AI
[2]; contact time 72 hrs
  Ca: ppm AI of first component (A) alone (MIC, QA): 3000 ppm AI
[3]; contact time 24 hrs
  Ca: ppm AI of first component (A) alone (MIC, QA): 87.5 ppm AI
[3]; contact time 48 hrs
  Ca: ppm AI of first component (A) alone (MIC, QA): 110 ppm AI
[4]; contact time 24 hrs
  Ca: ppm AI of first component (A) alone (MIC, QA): 110 ppm AI
[4]; contact time 48 hrs
  Ca: ppm AI of first component (A) alone (MIC, QA): 110 ppm AI

## N#CSCSc1nc2ccccc2s1 [TCMTB]
[1]; [5]
  Ca: MIC of TCMTB alone: 3 ppm AI
[1]; [6]
  Ca: MIC of TCMTB alone: 8.75 ppm AI
[2]; [7]
  Ca: MIC of TCMTB alone: 4.25 ppm AI
[2]; [8]
  Ca: MIC of TCMTB alone: 5.25 ppm AI
[3]; [9]
  Ca: MIC of TCMTB alone: 212.5 ppm AI
[4]; [10]
  Ca: MIC of TCMTB alone: 26.25 ppm AI
